Literature values as cited in publication PMC5531494, “Target specificity, in vivo pharmacokinetics, and efficacy of the putative STAT3 inhibitor LY5 in osteosarcoma, Ewing's sarcoma, and rhabdomyosarcoma” (PLoS ONE, 2017).

Settings: earlier work of the authors; cited from earlier work

For `NS(=O)(=O)c1cccc2c1C(=O)c1cccc(O)c1C2=O` [LLL12], the oral bioavailability is given as “poor oral bioavailability”.
